This assay concerns T47D (PIK3CA H1047R) cells. Nature of the assay: pS473 AKT assay with 2.5% FBS, T47D cells. Format: cell-based. The note with it: Homo sapiens, pSer473 AKT, DMEM with 2.5% FBS, 2 h treatment, read-out: T47D_IC50. Put shortly: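 T47D (PIK3CA H1047R) cells were switched to DMEM with 2.5% FBS and exposed to compounds for 2 h. After paraformaldehyde fixation, pSer473 AKT was detected by in-cell ELISA (rabbit primary, HRP anti-rabbit secondary, chemiluminescence); IC50 values were fitted from the concentration series.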

On to `Cc1cc(C(C)Nc2ccc(Cl)nc2-c2ncn(C)n2)c2c(c1)c(=O)n(C)c1c2cnn1C1CN(CCO)C1` (stereo not drawn) [Compound 89, 9-(1-((6-chloro-2-(1-methyl-1H-1,2,4-triazol-3-yl)pyridin-3-yl)amino)ethyl)-3-(1-(2-hydroxyethyl)azetidin-3-yl)-4,7-dimethyl-3,4-dihydro-5H-pyrazolo[3,4-c]isoquinolin-5-one], for which the IC50 was below 1000 nM.
As to `Cc1cc(C(C)Nc2ccc(Cl)nc2-c2ncn(C)n2)c2c(c1)c(=O)n(C)c1c2cnn1C1CN(C2CC2)C1` (stereo not drawn) [Compound 90, 9-(1-((6-chloro-2-(1-methyl-1H-1,2,4-triazol-3-yl)pyridin-3-yl)amino)ethyl)-3-(1-cyclopropylazetidin-3-yl)-4,7-dimethyl-3,4-dihydro-5H-pyrazolo[3,4-c]isoquinolin-5-one], the IC50 was below 1000 nM.
Take `Cc1cc(C(C)Nc2ccc(Cl)nc2-c2ncn(C)n2)c2c(c1)c(=O)n(C)c1c2cnn1C1CN(C[C@H](C)O)C1` (stereo partly drawn) [Compound 91, 9-(1-((6-chloro-2-(1-methyl-1H-1,2,4-triazol-3-yl)pyridin-3-yl)amino)ethyl)-3-(1-((S)-2-hydroxypropyl)azetidin-3-yl)-4,7-dimethyl-3,4-dihydro-5H-pyrazolo[3,4-c]isoquinolin-5-one]: the IC50 is below 1000 nM.
`Cc1cc(C(C)Nc2ccc(Cl)nc2-c2ncn(C)n2)c2c(c1)c(=O)n(C)c1c2cnn1C1CN(C[C@@H](C)O)C1` (stereo partly drawn) [Compound 92, 9-(1-((6-chloro-2-(1-methyl-1H-1,2,4-triazol-3-yl)pyridin-3-yl)amino)ethyl)-3-(1-((R)-2-hydroxypropyl)azetidin-3-yl)-4,7-dimethyl-3,4-dihydro-5H-pyrazolo[3,4-c]isoquinolin-5-one]: the IC50 is below 1000 nM.
`Cc1cc(C(C)Nc2ccc(Cl)nc2-c2ncn(C)n2)c2c(c1)c(=O)n(C)c1c2cnn1C1CN(CC(C)(C)O)C1` (stereo not drawn) [Compound 93, 9-(1-((6-chloro-2-(1-methyl-1H-1,2,4-triazol-3-yl)pyridin-3-yl)amino)ethyl)-3-(1-(2-hydroxy-2-methylpropyl)azetidin-3-yl)-4,7-dimethyl-3,4-dihydro-5H-pyrazolo[3,4-c]isoquinolin-5-one]: the IC50 was below 1000 nM.
On to `Cc1cc(C(C)Nc2ccc(Cl)nc2-c2ncn(C)n2)c2c(c1)c(=O)n(C)c1c2cnn1C1CN(CC(F)F)C1` (stereo not drawn) [Compound 94, 9-(1-((6-chloro-2-(1-methyl-1H-1,2,4-triazol-3-yl)pyridin-3-yl)amino)ethyl)-3-(1-(2,2-difluoroethyl)azetidin-3-yl)-4,7-dimethyl-3,4-dihydro-5H-pyrazolo[3,4-c]isoquinolin-5-one], for which the IC50 is below 1000 nM.
As for `Cc1cc(C(C)Nc2ccc(Cl)nc2-c2ncn(C)n2)c2c(c1)c(=O)n(C)c1c2cnn1C1CN(CC#N)C1` (stereo not drawn) [Compound 95, 2-(3-(9-(1-((6-chloro-2-(1-methyl-1H-1,2,4-triazol-3-yl)pyridin-3-yl)amino)ethyl)-4,7-dimethyl-5-oxo-4,5-dihydro-3H-pyrazolo[3,4-c]isoquinolin-3-yl)azetidin-1-yl)acetonitrile], the IC50 is below 1000 nM.
Regarding `Cc1cc(C(C)Nc2ccc(Cl)nc2-c2ncn(C)n2)c2c(c1)c(=O)n(C)c1c2cnn1C1CN(CCC#N)C1` (stereo not drawn) [Compound 96, 3-(3-(9-(1-((6-chloro-2-(1-methyl-1H-1,2,4-triazol-3-yl)pyridin-3-yl)amino)ethyl)-4,7-dimethyl-5-oxo-4,5-dihydro-3H-pyrazolo[3,4-c]isoquinolin-3-yl)azetidin-1-yl)propanenitrile], the IC50 was below 1000 nM.
The result for `CC(=O)N1CC(n2ncc3c4c(C(C)Nc5ccc(Cl)nc5-c5ncn(C)n5)cc(C)cc4c(=O)n(C)c32)C1` (stereo not drawn) [Compound 97, 3-(1-Acetylazetidin-3-yl)-9-(1-((6-chloro-2-(1-methyl-1H-1,2,4-triazol-3-yl)pyridin-3-yl)amino)ethyl)-4,7-dimethyl-3,4-dihydro-5H-pyrazolo[3,4-c]isoquinolin-5-one] reads below 1000 nM.

The record behind these values is US20250270213A1, “PI3Ka INHIBITORS” (Synnovation Therapeutics, Inc., priority 2022, published 2025).
